Experiment: xn = mol fraction of the nth substance listed

CCCC[n+]1ccn(C)c1.COP(=O)([O-])OC + O
101 kPa
Details	viscosity [mPa·s]
298.15 K, x2 = 0.398	251
303.15 K, x2 = 0.201	291
303.15 K, x2 = 0.601	81.6
313.15 K, x2 = 0.799	15.81
318.15 K, x2 = 0.398	78.8
328.15 K, x2 = 0.398	49.68

CCCCC[N+](CC)(CC)CC.O=S(=O)([N-]S(=O)(=O)C(F)(F)F)C(F)(F)F + CCCCC[P+](CC)(CC)CC.O=S(=O)([N-]S(=O)(=O)C(F)(F)F)C(F)(F)F
101.3 kPa
Details	viscosity [mPa·s]
298.15 K, x1 = 0.6	123
303.15 K, x1 = 1	126
318.15 K, x1 = 0.2	39.5
338.15 K, x1 = 0.6	22.8
343.15 K, x1 = 1	23.3
348.15 K, x1 = 0.8	18.3
353.15 K, x1 = 0.2	13.1
353.15 K, x1 = 1	17.3

CCCCCCCCn1cc[n+](C)c1.O=[N+]([O-])[O-] + CCCO
101 kPa
Details	viscosity [mPa·s]
288.15 K, x2 = 0.258	356
288.15 K, x2 = 0.556	52
293.15 K, x2 = 0.47	75.4
293.15 K, x2 = 0.556	42.1
293.15 K, x2 = 0.671	19.89
298.15 K, x2 = 0.866	5.08
303.15 K, x2 = 0.258	147
303.15 K, x2 = 0.364	78.7
308.15 K, x2 = 0.556	24.01
313.15 K, x2 = 0.47	32.9
313.15 K, x2 = 0.671	10.83
318.15 K, x2 = 0.258	65.9
318.15 K, x2 = 0.671	9.5
328.15 K, x2 = 0.556	11.56

— the CheMixHub ionic liquid set
